Data on twelve molecules can be found in ChEMBL document CHEMBL5291721, “A preclinical secondary pharmacology resource illuminates target-adverse drug reaction associations of marketed drugs” (Nat Commun, 2023).

In test [1] the target is Gamma-aminobutyric acid receptor subunit alpha-1/alpha-2/beta-2/gamma-2 (Homo sapiens, UniProt P14867+P18507+P47869+P47870). Format: functional, cell-based.
The target in test [2] is Histamine H1 receptor (Homo sapiens, UniProt P35367).
Test [3] addresses T1, 5-hydroxytryptamine receptor 2A (Homo sapiens, UniProt P28223). Type of test: functional, cell-based.
In test [4] the target is T2, Cannabinoid receptor 1 (Homo sapiens, UniProt P21554). Format: functional, cell-based.
Test [5] addresses T2, Cannabinoid receptor 1. Format: functional, cell-based. This is another data set of the same source.
Test [6] concerns the target T3, Alpha-1A adrenergic receptor (Homo sapiens, UniProt P35348).
T3 sequence (P35348 whole entry): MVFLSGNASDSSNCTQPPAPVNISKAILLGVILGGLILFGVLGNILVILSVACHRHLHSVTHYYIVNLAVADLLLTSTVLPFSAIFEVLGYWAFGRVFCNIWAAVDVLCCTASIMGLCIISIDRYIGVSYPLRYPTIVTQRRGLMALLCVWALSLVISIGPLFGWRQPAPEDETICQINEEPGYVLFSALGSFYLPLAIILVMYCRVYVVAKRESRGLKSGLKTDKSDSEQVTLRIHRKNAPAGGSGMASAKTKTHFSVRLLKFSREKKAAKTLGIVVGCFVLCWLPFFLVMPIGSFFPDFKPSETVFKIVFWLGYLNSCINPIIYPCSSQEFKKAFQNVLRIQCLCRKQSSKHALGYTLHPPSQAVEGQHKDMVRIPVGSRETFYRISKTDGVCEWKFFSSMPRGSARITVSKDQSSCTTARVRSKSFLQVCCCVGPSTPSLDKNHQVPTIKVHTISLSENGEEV
Type of test: functional, cell-based.

Test [7] concerns the target T4, Glucocorticoid receptor (Homo sapiens, UniProt P04150).
T4 sequence (P04150 whole entry): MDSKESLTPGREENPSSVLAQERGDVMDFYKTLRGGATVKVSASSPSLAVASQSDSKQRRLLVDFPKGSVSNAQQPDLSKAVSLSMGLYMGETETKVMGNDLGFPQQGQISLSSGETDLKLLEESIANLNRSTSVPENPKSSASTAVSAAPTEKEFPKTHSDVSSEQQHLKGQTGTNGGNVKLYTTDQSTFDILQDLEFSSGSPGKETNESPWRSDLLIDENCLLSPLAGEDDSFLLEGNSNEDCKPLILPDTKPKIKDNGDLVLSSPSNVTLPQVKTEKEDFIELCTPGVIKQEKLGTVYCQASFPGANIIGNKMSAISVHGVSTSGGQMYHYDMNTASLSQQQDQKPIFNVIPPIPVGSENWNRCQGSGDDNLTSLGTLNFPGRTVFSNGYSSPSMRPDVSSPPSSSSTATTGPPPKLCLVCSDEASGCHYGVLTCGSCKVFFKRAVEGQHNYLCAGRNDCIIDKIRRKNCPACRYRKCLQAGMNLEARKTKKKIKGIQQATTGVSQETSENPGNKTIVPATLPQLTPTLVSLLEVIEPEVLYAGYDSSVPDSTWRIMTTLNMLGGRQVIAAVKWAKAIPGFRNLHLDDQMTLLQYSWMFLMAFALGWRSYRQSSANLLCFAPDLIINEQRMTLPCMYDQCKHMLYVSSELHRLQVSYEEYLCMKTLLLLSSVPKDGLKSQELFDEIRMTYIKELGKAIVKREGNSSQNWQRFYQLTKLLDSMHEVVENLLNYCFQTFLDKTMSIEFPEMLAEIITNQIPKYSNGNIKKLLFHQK

For test [8], the target named is T1, 5-hydroxytryptamine receptor 2A. Format: functional, cell-based. This is another data set of the same source.
The target of test [9] is Histamine H2 receptor (Homo sapiens, UniProt P25021). Format: functional, cell-based.
In test [10] the target is T3, Alpha-1A adrenergic receptor. Format: functional, cell-based. The source holds these as a separate data set.
Test [11] addresses Beta-2 adrenergic receptor (Homo sapiens, UniProt P07550). Type of test: functional, cell-based.
The target of test [12] is Muscarinic acetylcholine receptor M3 (Homo sapiens, UniProt P20309).
In test [13] the target is T5, Amine oxidase [flavin-containing] A (Homo sapiens, UniProt P21397).
T5 sequence (P21397 whole entry): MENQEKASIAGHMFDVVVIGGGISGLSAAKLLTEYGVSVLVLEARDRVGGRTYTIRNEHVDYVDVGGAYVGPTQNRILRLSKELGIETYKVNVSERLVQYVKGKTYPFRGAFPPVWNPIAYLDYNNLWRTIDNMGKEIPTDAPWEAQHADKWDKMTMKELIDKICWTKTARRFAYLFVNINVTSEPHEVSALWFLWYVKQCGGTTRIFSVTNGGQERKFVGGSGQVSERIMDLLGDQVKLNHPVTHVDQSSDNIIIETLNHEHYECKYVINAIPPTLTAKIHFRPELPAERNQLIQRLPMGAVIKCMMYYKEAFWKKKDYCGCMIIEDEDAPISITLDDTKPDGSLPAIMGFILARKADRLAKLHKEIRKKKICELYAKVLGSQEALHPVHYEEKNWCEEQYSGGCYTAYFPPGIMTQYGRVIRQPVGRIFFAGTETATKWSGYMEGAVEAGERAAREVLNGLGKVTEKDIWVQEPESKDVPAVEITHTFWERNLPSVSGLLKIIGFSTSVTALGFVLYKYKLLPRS
Format: functional.

Test [14] concerns the target Sodium channel protein type 5 subunit alpha (Homo sapiens, UniProt Q14524). Format: functional, cell-based.
For test [15], the target named is Acetylcholinesterase (Homo sapiens, UniProt P22303). Type of test: functional.
The target of test [16] is Sodium-dependent dopamine transporter (Homo sapiens, UniProt Q01959).
Test [17] addresses T3, Alpha-1A adrenergic receptor. Format: functional, cell-based. This is another data set of the same source.
The target in test [18] is Melanocortin receptor 4 (Homo sapiens, UniProt P32245).
Note: assay procedure not described here.

Chain of Histamine H1 receptor (P35367 whole entry): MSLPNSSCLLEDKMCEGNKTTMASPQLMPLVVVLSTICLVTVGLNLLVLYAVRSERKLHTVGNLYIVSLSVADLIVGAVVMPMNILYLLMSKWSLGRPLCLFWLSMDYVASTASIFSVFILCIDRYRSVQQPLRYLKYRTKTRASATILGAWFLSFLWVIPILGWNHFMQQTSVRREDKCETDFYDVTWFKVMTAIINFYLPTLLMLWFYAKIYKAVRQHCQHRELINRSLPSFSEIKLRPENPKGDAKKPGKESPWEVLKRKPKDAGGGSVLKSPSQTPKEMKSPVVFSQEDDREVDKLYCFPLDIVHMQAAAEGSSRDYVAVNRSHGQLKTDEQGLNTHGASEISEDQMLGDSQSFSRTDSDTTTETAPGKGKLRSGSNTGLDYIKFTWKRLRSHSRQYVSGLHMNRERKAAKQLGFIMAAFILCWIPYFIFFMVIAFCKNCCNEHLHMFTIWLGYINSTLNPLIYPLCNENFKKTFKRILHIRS
Chain of Sodium channel protein type 5 subunit alpha (Q14524 whole entry): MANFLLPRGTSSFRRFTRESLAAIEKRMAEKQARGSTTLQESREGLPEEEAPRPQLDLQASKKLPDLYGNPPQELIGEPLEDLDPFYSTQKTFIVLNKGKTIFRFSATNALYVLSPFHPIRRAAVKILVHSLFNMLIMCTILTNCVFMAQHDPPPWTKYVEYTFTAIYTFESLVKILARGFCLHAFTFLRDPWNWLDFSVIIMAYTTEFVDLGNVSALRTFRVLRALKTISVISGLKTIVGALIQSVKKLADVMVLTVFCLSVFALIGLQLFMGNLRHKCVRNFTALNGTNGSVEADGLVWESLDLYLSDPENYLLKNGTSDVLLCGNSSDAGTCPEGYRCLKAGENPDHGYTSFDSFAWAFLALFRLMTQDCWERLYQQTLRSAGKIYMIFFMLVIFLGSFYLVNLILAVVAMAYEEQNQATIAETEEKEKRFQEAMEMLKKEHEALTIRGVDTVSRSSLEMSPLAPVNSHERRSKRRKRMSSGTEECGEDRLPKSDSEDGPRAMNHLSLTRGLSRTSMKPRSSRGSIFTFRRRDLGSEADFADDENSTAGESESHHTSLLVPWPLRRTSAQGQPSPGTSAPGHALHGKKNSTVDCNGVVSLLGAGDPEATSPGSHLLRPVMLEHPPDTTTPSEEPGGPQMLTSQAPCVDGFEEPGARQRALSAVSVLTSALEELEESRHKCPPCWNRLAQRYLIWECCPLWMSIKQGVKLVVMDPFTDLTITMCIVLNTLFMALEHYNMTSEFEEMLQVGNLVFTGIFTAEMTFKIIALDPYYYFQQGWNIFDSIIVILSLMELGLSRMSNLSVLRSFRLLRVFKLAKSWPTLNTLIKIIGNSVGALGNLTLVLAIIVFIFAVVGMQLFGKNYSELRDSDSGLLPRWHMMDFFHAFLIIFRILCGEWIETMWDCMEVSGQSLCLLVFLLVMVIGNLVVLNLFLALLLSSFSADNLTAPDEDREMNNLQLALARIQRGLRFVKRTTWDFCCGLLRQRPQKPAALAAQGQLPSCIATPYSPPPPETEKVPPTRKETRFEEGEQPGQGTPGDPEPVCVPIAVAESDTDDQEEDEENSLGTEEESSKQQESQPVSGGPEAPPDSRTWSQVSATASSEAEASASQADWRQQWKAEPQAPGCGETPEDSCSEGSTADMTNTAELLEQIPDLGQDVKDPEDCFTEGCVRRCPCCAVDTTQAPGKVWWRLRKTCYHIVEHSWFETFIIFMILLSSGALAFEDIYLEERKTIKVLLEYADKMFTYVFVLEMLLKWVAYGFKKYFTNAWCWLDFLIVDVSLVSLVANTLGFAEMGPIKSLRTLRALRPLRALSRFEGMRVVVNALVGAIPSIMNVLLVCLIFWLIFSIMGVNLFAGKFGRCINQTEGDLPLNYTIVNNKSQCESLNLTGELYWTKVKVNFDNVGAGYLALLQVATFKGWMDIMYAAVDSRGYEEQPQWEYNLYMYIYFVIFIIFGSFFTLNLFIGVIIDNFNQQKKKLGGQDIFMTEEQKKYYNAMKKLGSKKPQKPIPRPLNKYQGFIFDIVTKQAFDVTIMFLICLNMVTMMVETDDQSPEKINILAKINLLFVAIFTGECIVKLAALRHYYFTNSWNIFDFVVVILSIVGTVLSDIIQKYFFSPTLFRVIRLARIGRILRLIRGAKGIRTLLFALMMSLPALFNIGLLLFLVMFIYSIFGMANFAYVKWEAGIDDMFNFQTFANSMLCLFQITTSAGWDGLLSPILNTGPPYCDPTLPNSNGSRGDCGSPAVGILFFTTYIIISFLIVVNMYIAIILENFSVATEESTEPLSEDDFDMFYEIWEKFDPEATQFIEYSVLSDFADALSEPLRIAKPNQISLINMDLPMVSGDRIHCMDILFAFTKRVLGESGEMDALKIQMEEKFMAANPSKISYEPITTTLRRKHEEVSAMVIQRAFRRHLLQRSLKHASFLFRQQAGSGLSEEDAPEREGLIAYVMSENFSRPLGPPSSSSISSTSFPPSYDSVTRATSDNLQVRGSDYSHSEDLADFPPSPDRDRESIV
Chain of Muscarinic acetylcholine receptor M3 (P20309 whole entry): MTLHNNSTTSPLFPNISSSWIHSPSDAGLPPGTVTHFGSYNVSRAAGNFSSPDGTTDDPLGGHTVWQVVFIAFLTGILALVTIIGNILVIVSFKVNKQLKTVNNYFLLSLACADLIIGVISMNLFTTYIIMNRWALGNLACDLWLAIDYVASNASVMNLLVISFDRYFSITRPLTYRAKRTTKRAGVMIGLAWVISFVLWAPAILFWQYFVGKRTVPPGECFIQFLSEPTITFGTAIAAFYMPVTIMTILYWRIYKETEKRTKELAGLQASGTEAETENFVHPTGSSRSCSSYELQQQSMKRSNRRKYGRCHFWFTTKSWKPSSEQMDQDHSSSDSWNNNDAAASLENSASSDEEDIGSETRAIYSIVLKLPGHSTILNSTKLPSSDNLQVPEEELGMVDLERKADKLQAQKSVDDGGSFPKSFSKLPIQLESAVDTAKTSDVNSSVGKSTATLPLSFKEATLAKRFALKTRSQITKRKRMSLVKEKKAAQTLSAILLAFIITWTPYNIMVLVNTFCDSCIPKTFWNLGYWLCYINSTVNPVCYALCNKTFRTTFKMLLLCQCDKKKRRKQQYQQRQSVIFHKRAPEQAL
Chain of Gamma-aminobutyric acid receptor subunit alpha-1/alpha-2/beta-2/gamma-2 (P14867 whole entry): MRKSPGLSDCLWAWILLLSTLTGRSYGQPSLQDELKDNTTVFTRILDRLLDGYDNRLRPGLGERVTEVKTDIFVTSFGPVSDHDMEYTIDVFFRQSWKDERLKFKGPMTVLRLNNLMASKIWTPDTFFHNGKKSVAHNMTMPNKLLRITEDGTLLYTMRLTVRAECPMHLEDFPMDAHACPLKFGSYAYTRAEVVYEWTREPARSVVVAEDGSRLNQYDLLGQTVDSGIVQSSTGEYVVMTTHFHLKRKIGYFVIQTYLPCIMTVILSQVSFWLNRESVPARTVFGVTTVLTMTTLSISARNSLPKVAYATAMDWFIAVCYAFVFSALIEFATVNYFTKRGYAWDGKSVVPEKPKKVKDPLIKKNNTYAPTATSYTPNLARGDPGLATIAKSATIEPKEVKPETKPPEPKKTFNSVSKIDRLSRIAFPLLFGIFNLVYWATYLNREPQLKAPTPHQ
Chain of Gamma-aminobutyric acid receptor subunit alpha-1/alpha-2/beta-2/gamma-2 (P47870 whole entry): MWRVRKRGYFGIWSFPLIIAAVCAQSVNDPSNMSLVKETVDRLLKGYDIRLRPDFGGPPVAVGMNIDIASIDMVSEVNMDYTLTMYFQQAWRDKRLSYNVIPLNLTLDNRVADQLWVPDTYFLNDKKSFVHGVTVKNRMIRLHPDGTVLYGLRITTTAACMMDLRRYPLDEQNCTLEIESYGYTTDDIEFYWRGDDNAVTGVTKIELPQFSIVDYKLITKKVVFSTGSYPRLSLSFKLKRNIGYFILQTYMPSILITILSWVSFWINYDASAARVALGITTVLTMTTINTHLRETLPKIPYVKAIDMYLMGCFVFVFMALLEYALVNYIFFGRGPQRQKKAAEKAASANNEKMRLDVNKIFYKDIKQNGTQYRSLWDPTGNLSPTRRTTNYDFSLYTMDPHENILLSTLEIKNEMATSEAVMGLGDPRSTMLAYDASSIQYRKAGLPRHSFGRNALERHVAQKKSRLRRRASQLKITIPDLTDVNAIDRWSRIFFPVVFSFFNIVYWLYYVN
Chain of Gamma-aminobutyric acid receptor subunit alpha-1/alpha-2/beta-2/gamma-2 (P18507 whole entry): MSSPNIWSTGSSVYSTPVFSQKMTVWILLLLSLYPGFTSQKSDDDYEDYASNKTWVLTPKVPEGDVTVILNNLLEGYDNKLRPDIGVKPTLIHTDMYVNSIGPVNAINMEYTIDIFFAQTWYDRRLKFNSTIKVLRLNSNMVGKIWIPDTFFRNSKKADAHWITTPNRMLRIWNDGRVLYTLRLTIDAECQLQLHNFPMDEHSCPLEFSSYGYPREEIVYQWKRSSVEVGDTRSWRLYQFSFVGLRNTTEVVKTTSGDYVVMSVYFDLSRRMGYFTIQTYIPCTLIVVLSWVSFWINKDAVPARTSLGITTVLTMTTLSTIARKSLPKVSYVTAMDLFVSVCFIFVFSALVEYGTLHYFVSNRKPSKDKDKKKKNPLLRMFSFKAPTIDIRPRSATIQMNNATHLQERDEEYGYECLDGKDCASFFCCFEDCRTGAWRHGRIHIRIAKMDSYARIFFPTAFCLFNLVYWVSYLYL
Chain of Gamma-aminobutyric acid receptor subunit alpha-1/alpha-2/beta-2/gamma-2 (P47869 whole entry): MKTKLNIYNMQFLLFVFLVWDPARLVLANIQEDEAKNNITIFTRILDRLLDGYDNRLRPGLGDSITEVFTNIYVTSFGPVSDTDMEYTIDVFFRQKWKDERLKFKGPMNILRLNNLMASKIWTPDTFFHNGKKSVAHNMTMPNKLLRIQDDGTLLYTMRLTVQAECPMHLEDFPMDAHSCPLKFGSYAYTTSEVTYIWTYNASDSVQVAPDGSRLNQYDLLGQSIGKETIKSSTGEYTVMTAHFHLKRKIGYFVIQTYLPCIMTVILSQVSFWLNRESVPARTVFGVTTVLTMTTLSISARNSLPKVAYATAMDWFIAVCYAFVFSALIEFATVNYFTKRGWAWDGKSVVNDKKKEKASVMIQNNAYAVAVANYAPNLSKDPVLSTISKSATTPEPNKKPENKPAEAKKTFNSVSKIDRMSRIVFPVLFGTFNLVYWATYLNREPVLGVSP

For the molecule `CO/N=C(\C(=O)N[C@@H]1C(=O)N2C(C(=O)[O-])=C(C[N+]3(C)CCCC3)CS[C@H]12)c1csc(N)n1`, the AC50 was above 2400 µM in test [1]; above 300 µM in test [2]; above 30 µM in [3]; above 300 µM in test [4]; above 300 µM in test [5]; above 300 µM in test [6]. The AC50 is above 30 µM in test [7]; above 300 µM in [8]; above 30 µM in test [9]; above 300 µM in test [10]; above 300 µM in [11]; above 300 µM in test [12].
For `O=C1c2c(O)c(=O)ccn2N([C@@H]2c3ccccc3SCc3c2ccc(F)c3F)[C@@H]2COCCN12` [BALOXAVIR], the AC50 is above 30 µM in test [13]; above 50 µM in test [14]; above 30 µM in test [15]; above 30 µM in test [16]; above 30 µM in [17].
With `O=C(CCCCCCC(=O)Nc1ccccc1)NO` [VORINOSTAT], the AC50 in [1], in [2], in test [3], in test [4], in [5] and in [6] was above 30 µM throughout. Further, the AC50 in test [8], in [9], in test [10], in test [11], in test [12] and in [18] was above 30 µM throughout.
As to `CCOC(=O)N[C@@H]1CC[C@@H]2[C@@H](C1)C[C@H]1C(=O)O[C@H](C)[C@H]1[C@H]2/C=C/c1ccc(-c2cccc(F)c2)cn1` [VORAPAXAR], the AC50 in test [13] was above 30 µM; in test [14] it was above 50 µM; in test [15], above 30 µM; in test [16], above 30 µM; in [17], above 30 µM.
With `CCCS(=O)(=O)Nc1ccc(F)c(C(=O)c2c[nH]c3ncc(-c4ccc(Cl)cc4)cc23)c1F` [VEMURAFENIB], the AC50 in test [2], in test [3], in test [4], in [5], in [6] and in test [7] was above 30 µM in each case. Besides, the AC50 in test [8], in test [9], in test [14], in test [10] and in [12] was above 30 µM each time.
Take `OCCN1CCN(CCCN2c3ccccc3C=Cc3ccccc32)CC1` [OPIPRAMOL]: the AC50 in [1] is above 30 µM; in [2], 0.081 µM; in test [13], above 30 µM; in test [3], 28 µM; in test [4], above 30 µM; in [5], above 30 µM. For the same molecule, the AC50 in [6] was above 30 µM; in test [7], above 30 µM; in test [8], above 30 µM; in [9], above 30 µM; in [15] it was above 30 µM; in test [10], 14 µM. The AC50 was above 30 µM in test [11], 10.9 µM in test [16], above 30 µM in test [12] and above 30 µM in test [17].
In the case of `COC(=O)[C@@H]1CC2=CC(=O)CC[C@]2(C)[C@@]23O[C@@H]2C[C@@]2(C)[C@@H](CC[C@@]24CCC(=O)O4)[C@H]13` [EPLERENONE], the AC50 in test [1], in test [2], in test [3], in test [4], in test [5] and in test [6] was above 30 µM throughout. Besides, the AC50 in test [8] is above 30 µM; in test [9], above 10 µM; in test [10], above 30 µM; in test [11] it was above 30 µM; in test [12], above 30 µM; in [18] it was above 30 µM.
In the case of `COC(=O)N[C@H](C(=O)N1CCC[C@H]1c1nc(-c2ccc(-c3ccc(-c4c[nH]c([C@@H]5CCCN5C(=O)[C@@H](NC(=O)OC)C(C)C)n4)cc3)cc2)c[nH]1)C(C)C`, the AC50 in test [2], in [3], in test [6], in test [7], in [8] and in test [9] was above 30 µM each time. Further, the AC50 in [14], in test [10] and in test [12] was above 30 µM each time.
Consider `N[C@@H](C(=O)N[C@@H]1C(=O)N2C(C(=O)O)=C(Cl)CS[C@H]12)c1ccccc1` [CEFACLOR ANHYDROUS], for which the AC50 in test [1], in test [2], in test [3], in test [4], in [5] and in test [6] was above 30 µM in each case. The AC50 in test [7], in test [8], in test [9], in test [10], in [11] and in [12] was above 30 µM throughout.
For `CC(C)Cc1ccc(CC(=O)O)cc1` [IBUFENAC], the AC50 in [1], in test [2], in test [3], in test [4], in test [5] and in test [6] was above 30 µM each time. Besides, the AC50 in test [8], in [10], in test [11] and in test [12] was above 30 µM each time.
For `NC(=O)c1ncn([C@@H]2O[C@H](CO)[C@@H](O)[C@H]2O)c1O` [MIZORIBINE], the AC50 in [1], in test [2], in [3], in test [4], in test [5] and in test [6] was above 30 µM each time. Moreover, the AC50 in test [7], in [8], in [9], in test [10], in test [11] and in test [12] was above 30 µM throughout.
For `CC(=O)c1ccc2c(c1)N(CCCN1CCN(CCO)CC1)c1ccccc1S2` [ACETOPHENAZINE], the AC50 in test [1] is above 30 µM; in [2] it was 0.049 µM; in test [3] it was 0.87 µM; in test [4] it was above 30 µM; in [5], above 30 µM; in [6] it was above 30 µM. The AC50 in test [8] was above 30 µM; in test [10], 0.0045 µM; in test [11] it was above 30 µM; in test [12], above 30 µM.

The term AC50 denotes the concentration at which the activity in the assay is half-maximal. High values mean weaker potency, low ones greater potency.
